This is an account of results in patent publication US20240279218A1 (Hoffmann-La Roche Inc., priority 2016, published 2024).

Where two headings read alike, the source gives them in different places.

For orientation: Ki means the equilibrium dissociation constant of an inhibitor or competing ligand from its target.

Assay [1] addresses T1, h-GABA-A α5β3γ2 (Homo sapiens (Human), UniProt P18507+P31644). The assay can be described thus: [3H]flumazenil competition binding assay, membranes of HEK293 cells expressing human GABAA receptors. The procedure, abridged:
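Membranes were prepared from HEK293 cells with transient human α5β3γ2 expression and assayed in Krebs-tris, pH 7.5. Bound radioactivity measured on filters by liquid scintillation.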

The target in assay [2] is T1, h-GABA-A α5β3γ2. In words: Two-electrode voltage clamp electrophysiology in Xenopus oocytes expressing GABAA receptors, modulation of GABA EC20 current. It is filed as cell-based. Summed up:
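Values are % modulation of an EC20 GABA response, derived point by point from the ratio of compound-exposed versus control current traces (extremum taken, 100×(fold−1)). Recordings used oocytes injected with human α5, β3, γ2 mRNA, clamped at −80 mV at room temperature, at least 3 oocytes each.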
(In general: Two-electrode voltage clamp holds a large cell at a set potential and records current.)

Where [3] appears, read: displacement of [3H]flumazenil 0.5 nM, HEK293 cells expressing human receptors, mean of two determinations, read-out: Ki h-GABA-A α5β3γ2.
Where [4] appears, read: % modulation of GABA EC20 = 100*(Fold increase−1), Xenopus oocytes.
Where [5] appears, read: Xenopus oocytes, GABA EC20, test compound at approx. 30 fold its Ki.

Consider `Cc1ccc(-c2noc(C)c2COc2ccc(C(=O)N[C@@H]3CCS(=O)(=O)C3)cn2)cn1` [Example 20, N-((3R)-1,1-dioxothiolan-3-yl)-6-((5-methyl-3-(6-methylpyridin-3-yl)-1,2-oxazol-4-yl)methoxy)pyridine-3-carboxamide], for which, at h-GABA-A α5β3γ2 [1] (setting [3]), the Ki is 11.8 nM. Also, the “Efficacy (GABA) %” value at h-GABA-A α5β3γ2 [2] (setting [4]) came to 95%. For the same compound, the “Fold increase h-GABA-A α5β3γ2 oocyte” value at h-GABA-A α5β3γ2 [2] (setting [5]) is on record as 1.95.
Regarding `Cc1ccc(-c2noc(C)c2COc2cnc(C(=O)N3CC4(C3)CS(=O)(=O)C4)cn2)cn1` [Example 113, (2,2-dioxido-2-thia-6-azaspiro[3.3]heptan-6-yl)(5-((5-methyl-3-(6-methylpyridin-3-yl)isoxazol-4-yl)methoxy)pyrazin-2-yl)methanone], the Ki at h-GABA-A α5β3γ2 [1] (setting [3]) is 33.8 nM. Moreover, on h-GABA-A α5β3γ2 [2] (setting [4]), the “Efficacy (GABA) %” value was 28%. The “Fold increase h-GABA-A α5β3γ2 oocyte” value at h-GABA-A α5β3γ2 [2] (setting [5]) is recorded as 1.28.
As to `Cc1onc(-c2ccccn2)c1COc1ccc(C(=O)NC2CCOCC2)nn1` [RO-094, reference compound], the Ki at h-GABA-A α5β3γ2 [1] (reference compounds, GABAA receptor α5β3γ2, read-out: Ki α5-human) worked out at 2.9 nM. Moreover, on h-GABA-A α5β3γ2 [2] (reference compounds, % modulation of GABA EC20), the “Efficacy (GABA) %” value is −18%. Besides, at h-GABA-A α5β3γ2 [2] (reference compounds, GABAA α5β3γ2 overexpressing oocytes, GABA EC20), the “Fold increase h-GABA-A α5β3γ2 oocyte” value is 0.82.
Take `CCC[C@@H](CO)NC(=O)c1ccc(OCc2c(-c3ccc(C)nc3)noc2C)nc1` [Example 4, (S)—N-(1-hydroxypentan-2-yl)-6-((5-methyl-3-(6-methylpyridin-3-yl)isoxazol-4-yl)methoxy)nicotinamide]: the Ki at h-GABA-A α5β3γ2 [1] (setting [3]) worked out at 7.3 nM. The “Efficacy (GABA) %” value at h-GABA-A α5β3γ2 [2] (setting [4]) worked out at 150%. For the same compound, at h-GABA-A α5β3γ2 [2] (setting [5]), the “Fold increase h-GABA-A α5β3γ2 oocyte” value turned out to be 2.5.
Take `Cc1ccc(-c2noc(C)c2COc2cnc(C(=O)N[C@@H]3CCOC3)cn2)cn1` [Example 89, (R)-5-((5-Methyl-3-(6-methylpyridin-3-yl)isoxazol-4-yl)methoxy)-N-(tetrahydrofuran-3-yl)pyrazine-2-carboxamide]: at h-GABA-A α5β3γ2 [1] (setting [3]), the Ki was 13.1 nM. Moreover, the “Efficacy (GABA) %” value on h-GABA-A α5β3γ2 [2] (setting [4]) is recorded as 31%. Moreover, on h-GABA-A α5β3γ2 [2] (setting [5]), the “Fold increase h-GABA-A α5β3γ2 oocyte” value was determined as 1.31.
As to `Cc1ccc(-c2noc(C)c2COc2ccc(C(=O)N3CCC(F)(F)CC3)nn2)cn1` [Example 53, (4,4-difluoropiperidin-1-yl)(6-((5-methyl-3-(6-methylpyridin-3-yl)isoxazol-4-yl)methoxy)pyridazin-3-yl)methanone], at h-GABA-A α5β3γ2 [1] (setting [3]), the Ki was determined as 95.8 nM. Moreover, at h-GABA-A α5β3γ2 [2] (setting [4]), the “Efficacy (GABA) %” value stood at 80%. Besides, at h-GABA-A α5β3γ2 [2] (setting [5]), the “Fold increase h-GABA-A α5β3γ2 oocyte” value stood at 1.8.
On to `Cc1ccc(-c2noc(C)c2COc2ccc(C(=O)N3CCOCC3)nn2)cn1` [Example 60, (6-((5-methyl-3-(6-methylpyridin-3-yl)isoxazol-4-yl)methoxy)pyridazin-3-yl)(morpholino)methanone], for which the Ki on h-GABA-A α5β3γ2 [1] (setting [3]) was 93.4 nM. Also, the “Efficacy (GABA) %” value at h-GABA-A α5β3γ2 [2] (setting [4]) was determined as 99%. The “Fold increase h-GABA-A α5β3γ2 oocyte” value on h-GABA-A α5β3γ2 [2] (setting [5]) was 1.99.
Taken in the same sequence, the figures for `CCO[C@@H]1CC[C@@H](NC(=O)c2ccc(OCc3c(-c4ccc(C)nc4)noc3C)nn2)C1` [Example 190, N-((1R,3R)-3-ethoxycyclopentyl)-6-((5-methyl-3-(6-methylpyridin-3-yl)isoxazol-4-yl)methoxy)pyridazine-3-carboxamide] were 12.7 nM, 63% and 1.63.
Turning to `Cc1ccc(-c2noc(C)c2COc2cnc(C(=O)N[C@H]3CC[C@@H](C(F)(F)F)CC3)cn2)cn1` [Example 102, 5-((5-methyl-3-(6-methylpyridin-3-yl)isoxazol-4-yl)methoxy)-N-(cis-4-(trifluoromethyl)cyclohexyl)pyrazine-2-carboxamide], the Ki on h-GABA-A α5β3γ2 [1] (setting [3]) came out at 20.7 nM. Besides, the “Efficacy (GABA) %” value at h-GABA-A α5β3γ2 [2] (setting [4]) is 21%. At h-GABA-A α5β3γ2 [2] (setting [5]), the “Fold increase h-GABA-A α5β3γ2 oocyte” value came out at 1.21.
On to `Cc1ccc(-c2noc(C)c2COc2ccc(C(=O)NCCO)nn2)cn1` [Example 29, N-(2-hydroxyethyl)-6-((5-methyl-3-(6-methylpyridin-3-yl)isoxazol-4-yl)methoxy)pyridazine-3-carboxamide], for which, on h-GABA-A α5β3γ2 [1] (setting [3]), the Ki worked out at 8 nM. For the same compound, the “Efficacy (GABA) %” value on h-GABA-A α5β3γ2 [2] (setting [4]) was found to be 81%. Moreover, the “Fold increase h-GABA-A α5β3γ2 oocyte” value on h-GABA-A α5β3γ2 [2] (setting [5]) turned out to be 1.81.
The corresponding values for `Cc1ncc(-c2noc(C)c2COc2ccc(C(=O)NC3CCOCC3)cn2)cc1F` [Example 143, 6-((3-(5-fluoro-6-methyl-3-pyridyl)-5-methyl-isoxazol-4-yl)methoxy)-N-tetrahydropyran-4-yl-pyridine-3-carboxamide] are 14.5 nM, 20% and 1.2.
Taken in the same sequence, the figures for `Cc1ccc(-c2noc(C)c2COc2ccc(C(=O)N[C@H]3C[C@@H](OC4CC4)C3)nn2)cn1` [Example 176, cis-N-(3-cyclopropoxycyclobutyl)-6-((5-methyl-3-(6-methylpyridin-3-yl)isoxazol-4-yl)methoxy)pyridazine-3-carboxamide] were 12.7 nM, 64% and 1.64.
Turning to `O=C(NC1CC2(COC2)C1)c1ccc(OCc2c(-c3ccc(Cl)nc3)noc2C2CC2)nn1` [Example 178, 6-((3-(6-chloropyridin-3-yl)-5-cyclopropylisoxazol-4-yl)methoxy)-N-(2-oxaspiro[3.3]heptan-6-yl)pyridazine-3-carboxamide], on h-GABA-A α5β3γ2 [1] (setting [3]), the Ki worked out at 42.9 nM. Moreover, on h-GABA-A α5β3γ2 [2] (setting [4]), the “Efficacy (GABA) %” value worked out at 73%. Moreover, the “Fold increase h-GABA-A α5β3γ2 oocyte” value on h-GABA-A α5β3γ2 [2] (setting [5]) came out at 1.73.
For `Cc1onc(-c2ccc(Cl)nc2)c1COc1ccc(C(=O)NC2(C)COC2)nn1` [Example 161, 6-((3-(6-chloropyridin-3-yl)-5-methylisoxazol-4-yl)methoxy)-N-(3-methyloxetan-3-yl)pyridazine-3-carboxamide], the Ki at h-GABA-A α5β3γ2 [1] (setting [3]) was determined as 8 nM. For the same compound, the “Efficacy (GABA) %” value on h-GABA-A α5β3γ2 [2] (setting [4]) is 60%. For the same compound, at h-GABA-A α5β3γ2 [2] (setting [5]), the “Fold increase h-GABA-A α5β3γ2 oocyte” value was 1.6.
Turning to `Cc1ccc(-c2noc(CF)c2COc2ccc(C(=O)NC3(C(F)(F)F)CC3)nn2)cn1` [Example 184, 6-((5-(fluoromethyl)-3-(6-methylpyridin-3-yl)isoxazol-4-yl)methoxy)-N-(1-(trifluoromethyl)cyclopropyl)pyridazine-3-carboxamide], the Ki at h-GABA-A α5β3γ2 [1] (setting [3]) came to 51.2 nM. Further, the “Efficacy (GABA) %” value at h-GABA-A α5β3γ2 [2] (setting [4]) worked out at 96%. For the same compound, at h-GABA-A α5β3γ2 [2] (setting [5]), the “Fold increase h-GABA-A α5β3γ2 oocyte” value was 1.96.
For `Cc1ccc(-c2noc(C)c2COc2ccc(C(=O)N3CC(C)(F)C3)nn2)cn1` [Example 67, (3-fluoro-3-methylazetidin-1-yl)(6-((5-methyl-3-(6-methylpyridin-3-yl)isoxazol-4-yl)methoxy)pyridazin-3-yl)methanone], the Ki at h-GABA-A α5β3γ2 [1] (setting [3]) is 11.8 nM. Moreover, the “Efficacy (GABA) %” value at h-GABA-A α5β3γ2 [2] (setting [4]) is 59%. The “Fold increase h-GABA-A α5β3γ2 oocyte” value at h-GABA-A α5β3γ2 [2] (setting [5]) is 1.59.
The corresponding values for `CCc1onc(-c2ccc(C)nc2)c1COc1ccc(C(=O)NC2(C)COC2)nn1` [Example 122, 6-((5-ethyl-3-(6-methylpyridin-3-yl)isoxazol-4-yl)methoxy)-N-(3-methyloxetan-3-yl)pyridazine-3-carboxamide] are 26.4 nM, 126% and 2.26.
Take `Cc1ccc(-c2noc(C)c2COc2ccc(C(=O)N3CCC3)nn2)cn1` [Example 57, azetidin-1-yl(6-((5-methyl-3-(6-methylpyridin-3-yl)isoxazol-4-yl)methoxy)pyridazin-3-yl)methanone]: on h-GABA-A α5β3γ2 [1] (setting [3]), the Ki turned out to be 7.2 nM. For the same compound, the “Efficacy (GABA) %” value at h-GABA-A α5β3γ2 [2] (setting [4]) stood at 64%. Also, the “Fold increase h-GABA-A α5β3γ2 oocyte” value on h-GABA-A α5β3γ2 [2] (setting [5]) turned out to be 1.64.
Turning to `Cc1ccc(-c2noc(C)c2COc2cnc(C(=O)NC(C)(C)CO)cn2)cn1` [Example 73, N-(2-hydroxy-1,1-dimethyl-ethyl)-5-((5-methyl-3-(6-methyl-3-pyridyl)isoxazol-4-yl)methoxy)pyrazine-2-carboxamide], at h-GABA-A α5β3γ2 [1] (setting [3]), the Ki was 52.8 nM. The “Efficacy (GABA) %” value at h-GABA-A α5β3γ2 [2] (setting [4]) turned out to be 45%. Further, the “Fold increase h-GABA-A α5β3γ2 oocyte” value at h-GABA-A α5β3γ2 [2] (setting [5]) worked out at 1.45.
The corresponding values for `CCC[C@@H](CO)NC(=O)c1cnc(OCc2c(-c3ccc(C)nc3)noc2C)cn1` [Example 14, N-((1S)-1-(hydroxymethyl)butyl)-5-((5-methyl-3-(6-methyl-3-pyridyl)isoxazol-4-yl)methoxy)pyrazine-2-carboxamide] are 74.5 nM, 160% and 2.6.
The corresponding values for `Cc1ccc(-c2noc(C)c2COc2ccc(C(=O)N[C@@H]3CCCOC3)nn2)cn1` [Example 99, (R)-6-((5-methyl-3-(6-methylpyridin-3-yl)isoxazol-4-yl)methoxy)-N-(tetrahydropyran-3-yl)pyridazine-3-carboxamide] are 6.8 nM, 73% and 1.73.
For the compound `Cc1ccc(-c2noc(C)c2COc2ccc(C(=O)NC3(C)CCS(=O)(=O)CC3)nn2)cn1` [Example 111, N-(4-methyl-1,1-dioxidotetrahydro-2H-thiopyran-4-yl)-6-((5-methyl-3-(6-methylpyridin-3-yl)isoxazol-4-yl)methoxy)pyridazine-3-carboxamide], at h-GABA-A α5β3γ2 [1] (setting [3]), the Ki is 4.6 nM. Besides, the “Efficacy (GABA) %” value at h-GABA-A α5β3γ2 [2] (setting [4]) is 89%. Moreover, the “Fold increase h-GABA-A α5β3γ2 oocyte” value on h-GABA-A α5β3γ2 [2] (setting [5]) was determined as 1.89.
Taken in the same sequence, the figures for `Cc1ccc(-c2noc(C)c2COc2ccc(C(=O)N[C@H]3CC[C@H](OCC(F)F)CC3)nn2)cn1` [Example 194, trans-N-(4-(2,2-difluoroethoxy)cyclohexyl)-6-((5-methyl-3-(6-methylpyridin-3-yl)-1,2-oxazol-4-yl)methoxy)pyridazine-3-carboxamide] were 13.3 nM, 84% and 1.84.
